Entries after “also recorded” stand apart in the source; their conditions may differ.
Target: T1, mouse PM20D1 (Mus musculus, UniProt Q8C165)
T1 construct: Full-length mouse Pm20d1 cDNA (GE Dharmacon) was subcloned with an in-frame C-terminal 6× His and FLAG® tag; made in house; host or cells: 293A (HEK293A) cells stably infected with retrovirus
T1 sequence (Q8C165 25-503): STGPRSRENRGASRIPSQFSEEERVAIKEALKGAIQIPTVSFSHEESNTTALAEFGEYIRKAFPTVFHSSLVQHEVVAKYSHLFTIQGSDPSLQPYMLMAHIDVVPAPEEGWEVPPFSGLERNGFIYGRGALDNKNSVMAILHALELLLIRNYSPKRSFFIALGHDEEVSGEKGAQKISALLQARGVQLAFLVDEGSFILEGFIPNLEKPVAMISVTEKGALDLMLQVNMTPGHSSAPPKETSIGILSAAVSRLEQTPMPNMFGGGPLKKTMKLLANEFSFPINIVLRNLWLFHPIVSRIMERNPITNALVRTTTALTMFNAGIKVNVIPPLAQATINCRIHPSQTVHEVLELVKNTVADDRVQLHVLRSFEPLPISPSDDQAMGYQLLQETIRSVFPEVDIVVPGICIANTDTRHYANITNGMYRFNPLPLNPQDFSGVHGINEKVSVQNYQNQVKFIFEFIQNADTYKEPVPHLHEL
Assay: In vitro PM20D1-catalyzed N-acyl amino acid hydrolysis
Type: biochemical
Settings: N-acyl amide substrate 100 μM
Protocol: The concentrated media was centrifuged to remove debris (600×g, 10 min, 4° C.) and the supernatant containing PM20D1-flag was decanted into a new tube. PM20D1-Flag was immunoaffinity purified overnight at 4° C. from the concentrated media using magnetic Flag-M2 beads (Sigma Aldrich). The beads were collected, washed three times in PBS, eluted with 3× Flag peptide ([…] in PBS, Sigma Aldrich), aliquoted, and stored at −80° C. For the purification of human PM20D1-flag, hPM20D1-flag plasmid (Origene) was transiently transfected into 293A cells. After two days, the media was changed, harvested 24 h later, concentrated, and purified exactly as described above.
In vitro PM20D1-catalyzed synthesis of N-acyl amino acids was measured by incubating purified PM20D1 protein with oleate (1.5 mM) and phenylalanine (0.1 mM) in PBS (to 100 μl final volume) at 37° C. for 1.5 hrs. In vitro PM20D1-catalyzed N-acyl amino acid hydrolysis was measured by incubating purified PM20D1 protein with the indicated N-acyl amino acid (0.1 mM) in PBS (to 100 μl final volume) at 37° C. for 1.5 hrs. Reactions were terminated by placing the vials at −80° C. and the products generated in vitro were analyzed by mass spectroscopy (MS).
Briefly, frozen serum (30 μl) for polar metabolomic analyses were extracted in 160 μl of 1:1 acetonitrile/methanol with inclusion of internal standard D3, ^15N-serine (1 nmol). Activity assays (100 μl) were extracted in 400 μl 1:1 acetonitrile/methanol. Following 30 s of thorough vortexing and 1 min of bath sonication, the polar metabolite fraction (supernatant) was isolated by centrifugation at 13,000×g for 10 min. Ten μl of this supernatant was analyzed by SRM-based targeted LC-MS/MS, or untargeted LC-MS.
For separation of polar metabolites, normal-phase chromatography was performed with a […] column (50 mm×4.60 mm, Phenomenex). Mobile phases were as follows: Buffer A, acetonitrile; Buffer B, 95:5 water/acetonitrile with 0.1% formic acid or 0.2% ammonium hydroxide with 50 mM ammonium acetate for positive and negative ionization mode, respectively. The flow rate for each run started at 0.2 ml/min for 2 min, followed by a gradient starting at 0% B and increasing linearly to 100% B over the course of 15 min with a flow rate of 0.7 ml/min, followed by an isocratic gradient of 100% B for 10 min at 0.7 ml/min before equilibrating for 5 min at 0% B with a flow rate of 0.7 ml/min. MS analysis was performed with an electrospray ionization (ESI) source on an Agilent 6430 QQQ LC—MS/MS. The capillary voltage was set to 3.5 kV, and the fragmentor voltage was set to 100 V. The drying gas temperature was 325° C., the drying gas flow rate was 10 l/min, and the nebulizer pressure was 45 psi. For polar targeted and untargeted metabolomic analysis, representative metabolites were quantified by SRM of the transition from precursor to product ions (corresponding to amino acid fragment) at associated collision energies. Several representative fragmentation ions are as follows: C18:1-Ala, 352>88; C18:1-Gly, 338>74; C18:1-Phe, 428>164; C18:1-Leu/Ile, 394>130; C20:4-Phe, 450>164; C20:4-Leu/Ile, 416>130. Untargeted LC-MS was performed by scanning a mass range of m/z 50-1200, and data were exported as mzdata files and uploaded to XCMSOnline (xcmsserver.nutr.berkeley.edu) to identify metabolites that were differentially changed. For targeted metabolomics analysis, metabolites were quantified by integrating the area under the peak and were normalized to internal standard values corresponding to 1 nmol D3, ^15N-serine.

CCCCCCCC/C=C\CCCCCCCC(=O)N[C@@H](Cc1ccccc1)C(=O)O [C18:1-Phe, Oleoyl-L-phenylalanine]
substrate of the PM20D1 hydrolysis reaction: substrates; also recorded: liberated free oleate

From US12194080B2, “Methods for identification, assessment, prevention, and treatment of metabolic disorders using PM20D1 and N-lipidated amino acids” (Dana-Farber Cancer Institute, Inc., priority 2015, dated 2025)
